Measured values from the CheMixHub viscosity set.
± gives the uncertainty stated by the source.

Assay: xn = mol fraction of the nth substance listed

BrC(Br)Br + CCCCO
viscosity [mPa·s], 101.3 kPa
Details	x1 = 0.099	x1 = 0.205	x1 = 0.3	x1 = 0.401	x1 = 0.501	x1 = 0.602	x1 = 0.699	x1 = 0.803	x1 = 0.899
298.15 K	2.482 ± 0.031	2.339 ± 0.029	2.196 ± 0.027	2.063 ± 0.026	1.955 ± 0.025	1.887 ± 0.024	1.847 ± 0.023	1.817 ± 0.023	1.827 ± 0.023
303.15 K	2.183 ± 0.027	2.07 ± 0.026	1.942 ± 0.024	1.841 ± 0.023	1.768 ± 0.022	1.718 ± 0.022	1.695 ± 0.022	1.684 ± 0.021	1.709 ± 0.022
308.15 K	1.915 ± 0.024	1.828 ± 0.023	1.738 ± 0.022	1.662 ± 0.021	1.607 ± 0.02	1.573 ± 0.02	1.559 ± 0.02	1.564 ± 0.02	1.588 ± 0.02

C=Cc1ccccc1 + CCCCO
viscosity [mPa·s], 101.33 kPa
Details	x1 = 0.0999	x1 = 0.2019	x1 = 0.2994	x1 = 0.3982	x1 = 0.5226	x1 = 0.602	x1 = 0.703	x1 = 0.7942	x1 = 0.8935
298.15 K	1.971 ± 0.091	1.644 ± 0.077	1.368 ± 0.065	1.165 ± 0.056	0.969 ± 0.048	0.913 ± 0.046	0.821 ± 0.042	0.772 ± 0.04	0.729 ± 0.038
303.15 K	1.809 ± 0.084	1.47 ± 0.07	1.23 ± 0.059	1.052 ± 0.052	0.885 ± 0.044	0.83 ± 0.042	0.767 ± 0.039	0.721 ± 0.037	0.681 ± 0.036
308.15 K	1.636 ± 0.077	1.327 ± 0.063	1.104 ± 0.054	0.95 ± 0.047	0.811 ± 0.041	0.762 ± 0.039	0.693 ± 0.036	0.66 ± 0.035	0.63 ± 0.033

BrC(Br)Br + CCCCCCCCCO
viscosity [mPa·s], 101.3 kPa
Details	x1 = 0.105	x1 = 0.299	x1 = 0.404	x1 = 0.504	x1 = 0.604	x1 = 0.704	x1 = 0.802	x1 = 0.903
298.15 K	7.847 ± 0.086	5.743 ± 0.067	5.079 ± 0.06	4.228 ± 0.051	3.571 ± 0.043	2.984 ± 0.037	2.492 ± 0.031	2.12 ± 0.026
303.15 K	6.517 ± 0.074	4.87 ± 0.058	4.38 ± 0.053	3.693 ± 0.045	3.151 ± 0.038	2.669 ± 0.033	2.266 ± 0.028	1.963 ± 0.025
308.15 K	5.421 ± 0.064	4.144 ± 0.05	3.777 ± 0.046	3.24 ± 0.04	2.802 ± 0.034	2.399 ± 0.03	2.065 ± 0.026	1.818 ± 0.023

C=Cc1ccccc1 + CCCCCO
viscosity [mPa·s], 101.33 kPa
Details	x1 = 0.1003	x1 = 0.1994	x1 = 0.3003	x1 = 0.3977	x1 = 0.4969	x1 = 0.5963	x1 = 0.7027	x1 = 0.8026	x1 = 0.9011
298.15 K	2.791 ± 0.12	2.141 ± 0.098	1.602 ± 0.075	1.32 ± 0.063	1.112 ± 0.054	0.984 ± 0.049	0.859 ± 0.043	0.783 ± 0.04	0.737 ± 0.038
303.15 K	2.472 ± 0.11	1.984 ± 0.091	1.404 ± 0.067	1.175 ± 0.057	1.013 ± 0.05	0.901 ± 0.045	0.793 ± 0.04	0.741 ± 0.038	0.692 ± 0.036
308.15 K	2.166 ± 0.099	1.638 ± 0.077	1.25 ± 0.06	1.046 ± 0.051	0.915 ± 0.046	0.82 ± 0.042	0.722 ± 0.037	0.68 ± 0.036	0.637 ± 0.034
